In article PMC9370283, “New Quinoxaline-Based Derivatives as PARP-1 Inhibitors: Design, Synthesis, Antiproliferative, and Computational Studies” (Molecules, 2022):
Where “and” joins values, the source holds several entries; their conditions need not be identical. Equal values may be shown once. Read-outs that look alike come from different tables or passages of the source.

What was measured:
MDA-MB-436 = assay: in vitro cytotoxicity, MTT assay, MDA-MB-436; details: for IC50: read-out: IC50 (mean ± SEM) MDA-MB-436; for % viability MDA-MB-436: MTT lab report
PARP-1 = target: T1, PARP-1 (Homo sapiens, UniProt P09874); assay: colorimetric 96-well PARP-1 assay kit (BPS Bioscience); type: biochemical; details: for IC50: read-out: IC50 (mean ± SEM) PARP-1; for fold less PARP-1 inhibitory activity than reference drug Olaparib: ratio of IC50 values
T1 construct: purchased BPS Bioscience 80580
T1 sequence (P09874 whole entry): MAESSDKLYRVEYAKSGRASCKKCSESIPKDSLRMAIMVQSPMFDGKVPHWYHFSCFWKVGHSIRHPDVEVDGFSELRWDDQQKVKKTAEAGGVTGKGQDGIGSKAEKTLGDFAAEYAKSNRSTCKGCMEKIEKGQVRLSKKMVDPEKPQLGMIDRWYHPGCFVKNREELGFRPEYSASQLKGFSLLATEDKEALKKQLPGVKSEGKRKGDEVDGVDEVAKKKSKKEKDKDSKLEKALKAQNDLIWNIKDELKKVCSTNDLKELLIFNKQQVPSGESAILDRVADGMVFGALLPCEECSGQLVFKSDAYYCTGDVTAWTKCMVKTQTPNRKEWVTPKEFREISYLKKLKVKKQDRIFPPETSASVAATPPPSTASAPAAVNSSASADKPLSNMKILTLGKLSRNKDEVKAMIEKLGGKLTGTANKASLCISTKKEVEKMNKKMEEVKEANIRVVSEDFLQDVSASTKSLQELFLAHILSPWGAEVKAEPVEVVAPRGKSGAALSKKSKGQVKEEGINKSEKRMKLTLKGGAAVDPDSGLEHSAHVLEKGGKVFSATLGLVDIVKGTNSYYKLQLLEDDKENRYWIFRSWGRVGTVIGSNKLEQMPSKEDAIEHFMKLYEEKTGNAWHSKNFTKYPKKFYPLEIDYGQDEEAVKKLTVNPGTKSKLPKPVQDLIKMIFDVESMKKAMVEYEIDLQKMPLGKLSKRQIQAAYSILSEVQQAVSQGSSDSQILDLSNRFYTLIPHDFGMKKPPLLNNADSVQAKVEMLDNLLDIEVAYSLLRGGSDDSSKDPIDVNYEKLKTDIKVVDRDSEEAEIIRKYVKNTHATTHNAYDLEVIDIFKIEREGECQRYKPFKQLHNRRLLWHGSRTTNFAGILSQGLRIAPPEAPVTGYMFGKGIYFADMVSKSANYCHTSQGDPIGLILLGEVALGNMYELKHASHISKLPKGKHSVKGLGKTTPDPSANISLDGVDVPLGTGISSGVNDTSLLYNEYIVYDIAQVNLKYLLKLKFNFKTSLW

For `O=C(c1cc(Cc2n[nH]c(=O)c3ccccc23)ccc1F)N1CCN(C(=O)C2CC2)CC1` [Olaparib, reference compound], which IC50 (MDA-MB-436) is on record?
Its IC50 is 8900 nM and 8630 nM.

Which results are given for `COc1ccc(-n2c(=O)cc(O)n(NS(=O)(=O)c3ccc4[nH]c(=O)c(=O)[nH]c4c3)c2=S)cc1` [Compound 9a, N-(6-hydroxy-3-(4-methoxyphenyl)-4-oxo-2-thioxo-3,4-dihydropyrimidin-1(2H)-yl)-2,3-dioxo-1,2,3,4-tetrahydroquinoxaline-6-sulfonamide]?
melting point: 205 to 207 °C; IC50 (PARP-1): 57.4 ± 2.9 nM

Which results are given for `COc1ccc(N2C(=O)CSC2=NNS(=O)(=O)c2ccc3[nH]c(=O)c(=O)[nH]c3c2)cc1` [Compound 12a, N’-(3-(4-methoxyphenyl)-4-oxothiazolidin-2-ylidene)-2,3-dioxo-1,2,3,4-tetrahydro quinoxaline-6-sulfonohydrazide]?
melting point: 292 to 294 °C; IC50 (PARP-1): 36.1 ± 1.84 nM

Which melting point does the source give for `O=C(c1ccccc1)n1c(=O)cc(O)n(NS(=O)(=O)c2ccc3[nH]c(=O)c(=O)[nH]c3c2)c1=S` [Compound 9b, N-(3-benzoyl-6-hydroxy-4-oxo-2-thioxo-3,4-dihydropyrimidin-1(2H)-yl)-2,3-dioxo-1,2,3,4-tetrahydroquinoxaline-6-sulfonamide] here?
The melting point was 270 to 272 °C.

What about the IC50 (PARP-1) of the same molecule?
The IC50 was 35.7 ± 1.82 nM.

For `O=C1c2ccccc2C(=O)N1NS(=O)(=O)c1ccc2[nH]c(=O)c(=O)[nH]c2c1` [Compound 7c, N-(1,3-dioxoisoindolin-2-yl)-2,3-dioxo-1,2,3,4-tetrahydroquinoxaline-6-sulfonamide], which melting point is on record?
The melting point was 207 to 209 °C.

And the IC50 (PARP-1)?
The IC50 was 43.4 ± 0.1 nM.

With `O=C1C=CC(=O)N1NS(=O)(=O)c1ccc2[nH]c(=O)c(=O)[nH]c2c1` [Compound 7b, N-(2,5-dioxo-2,5-dihydro-1H-pyrrol-1-yl)-2,3-dioxo-1,2,3,4-tetrahydroquinoxaline-6-sulfonamide] as the molecule, how does the melting point read?
Its melting point is 295 to 297 °C.

What about the IC50 (PARP-1) of the same molecule?
Its IC50 is 35.8 ± 1.8 nM.

Which results are given for `O=C1CCC(=O)N1NS(=O)(=O)c1ccc2[nH]c(=O)c(=O)[nH]c2c1` [Compound 7a, N-(2,5-dioxopyrrolidin-1-yl)-2,3-dioxo-1,2,3,4-tetrahydroquinoxaline-6-sulfonamide]?
melting point: 292 to 294 °C; IC50 (PARP-1): 57.1 ± 2.91 nM

What does the source list for `O=C1CSC(=NNS(=O)(=O)c2ccc3[nH]c(=O)c(=O)[nH]c3c2)N1C(=O)c1ccccc1` [Compound 12b, N’-(3-benzoyl-4-oxothiazolidin-2-ylidene)-2,3-dioxo-1,2,3,4-tetrahydroquinoxaline-6-sulfonohydrazide]?
melting point: 290 to 292 °C; IC50 (PARP-1): 40.5 ± 2.06 nM

With `O=C1CC(=O)N(S(=O)(=O)c2ccc3[nH]c(=O)c(=O)[nH]c3c2)N1` [Compound 6, 6-((3,5-Dioxopyrazolidin-1-yl)sulfonyl)-1,4-dihydroquinoxaline-2,3-dione] as the molecule, how does the melting point read?
The melting point was 270 to 272 °C.

What about the “fold less PARP-1 inhibitory activity than reference drug Olaparib” value (PARP-1) of the same molecule?
Its value is about 3 fold.

And the IC50 (PARP-1)?
Its IC50 is 13.3 ± 0.68 nM.

With `COc1ccc(-n2c(C)csc2=NNS(=O)(=O)c2ccc3[nH]c(=O)c(=O)[nH]c3c2)cc1` [Compound 10a, N′-(3-(4-methoxyphenyl)-4-methylthiazol-2(3H)-ylidene)-2,3-dioxo-1,2,3,4-tetrahydroquinoxaline-6-sulfonohydrazide] as the molecule, how does the melting point read?
Its melting point is 130 to 132 °C.

What about the IC50 (PARP-1) of the same molecule?
The IC50 was 21.6 ± 1.1 nM.

For `NNS(=O)(=O)c1ccc2[nH]c(=O)c(=O)[nH]c2c1` [Compound 3, 2,3-Dioxo-1,2,3,4-tetrahydroquinoxaline-6-sulfonohydrazide], which melting point is on record?
Its melting point is 285 to 287 °C.

What about the “fold less PARP-1 inhibitory activity than reference drug Olaparib” value (PARP-1) of the same molecule?
Its value is 3 fold.

And the IC50 (PARP-1)?
The IC50 was 12.9 ± 4.73 nM.

Which “% viability MDA-MB-436” value (MDA-MB-436; log conc. 0.193 (1.6uM)) does the source give for `Cc1cc(O)n(S(=O)(=O)c2ccc3[nH]c(=O)c(=O)[nH]c3c2)n1` [Compound 4, 6-((5-Hydroxy-3-methyl-1H-pyrazol-1-yl)sulfonyl)-1,4-dihydroquinoxaline-2,3-dione] here?
Its value is 69.76%.

And the “% viability MDA-MB-436” value (MDA-MB-436; log conc. 0.796 (6.3uM))?
Its value is 60.12%.

And the “% viability MDA-MB-436” value (MDA-MB-436; log conc. 1.398 (25uM))?
The value was 51.83%.

And the “% viability MDA-MB-436” value (MDA-MB-436; log conc. 2 (100uM))?
Its value is 42.01%.

What about the “% viability MDA-MB-436” value (MDA-MB-436; log conc. -0.409 (0.4uM)) of the same molecule?
The value was 81.83%.

And the IC50 (MDA-MB-436; mutant BRCA1 breast cancer cells, MTT)?
Its IC50 is 30300 ± 1780 nM.

What about the “fold less PARP-1 inhibitory activity than reference drug Olaparib” value (PARP-1) of the same molecule?
The value was about 2 fold.

And the IC50 (PARP-1)?
Its IC50 is 8.73 ± 0.44 nM.
